Reference: patent publication US20180237358A1, “RADIOISOTOPE 18F SUBSTITUTED THIAMINE, AND SYNTHESIS METHOD AND USE THEREOF” (ZHONGSHAN HOSPITAL FUDAN UNIVERSITY, priority 2015, published 2018)
Where “and” joins values, the source holds several entries; their conditions need not be identical. Equal entries are not always repeated.

Columns and labels:
[1] = small animal PET/CT scan of two strains of mice (summary statement); assay type: in vivo, mice (ICR and C57BL/6); conditions: ICR and C57BL/6 mice
Excerpt: is successfully substituted with ^18F atom, and a fluorine-substituted thiamine (Formula I) and a hydrobromide thereof (Formula II) are synthesized. Subsequently, the present inventors scan two strains of mice (ICR and C57BL/6) using the small animal PET/CT.

[2] = PET/CT scan of ICR mice with ^18F substituted thiamine as tracer, whole brain ROI (SUV, TAC); assay type: in vivo
Excerpt: 1. Experiments on Scanning of ICR Mice by Using ^18F Substituted Thiamine as a PET/CT Tracer.
(§1) 1.1. Experimental Drug: ^18F Substituted Thiamine (Synthesized and Identified as in Example 1).
(§2) 1.2. Animals and treatments: 8-week-old ICR mice, SPF grade, purchased from Shanghai SLAC Laboratory Animal Co., Ltd, were housed in a barrier environment and assigned to a treatment group and a control group randomly. The animals in the treatment group were fed with thiamine deficient diet (n=3), and the animals in the control group were fed with normal diet (n=3). After 28 days, PET/CT scan of the mice was performed.
1.3. PET/CT scan of the mice: small animal PET/CT scanner (Inveon, Siemens) thickness of PET layer: 0.78 mm, 128*128 matrix, energy window: 350-650 kev, CT tube current: 500 uA, tube voltage: 80 kv; scan mode: dynamic scan; scan time: 90 min.
(§3) 1.4. Processing of PET/CT image: After the acquisition, the images were reconstructed with two iterations of 3D OSEM. The whole brain was delimited as the region of interest (ROI) by the image processing software coming with the Inveon small animal PET/CT scanner. The Standard uptake value (SUV) and TAC within 90 min were calculated.

[3] = PET/CT scan of C57BL/6 mice with ^18F substituted thiamine as tracer, whole brain ROI (SUV, TAC); assay type: in vivo
Excerpt: 1. Experiments on Scanning of C57BL/6 Mice by Using ^18F Substituted Thiamine as a PET/CT Tracer.
as §1
as §2, with “treatments: 8-week-old C57BL/6 mice, SPF” for “treatments: 8-week-old ICR mice, SPF”, “a control group, randomly. The” for “a control group randomly. The”, “deficient diet (n=2), and the” for “deficient diet (n=3), and the”
1.3. PET/CT scan of the mice: Small animal PET/CT scanner (Inveon, Siemens), thickness of PET layer: 0.78 mm, 128*128 matrix, energy window: 350-650 kev, CT tube current: 500 uA, tube voltage: 80 kv; scan mode: dynamic scan; scan time: 90 min.
as §3, with “SUV” for “Standard uptake value (SUV)”

[4] = PET/CT scan of ICR mice with ^18F substituted thiamine as tracer, whole brain ROI (SUV, TAC); assay type: in vivo; conditions: control group ICR mice (normal diet), two mice

| SMILES | uptake in the brain of thiamine-deficient model mice versus control mice [1] | blood-brain barrier penetration ([1]; small animal PET/CT) | uptake in the brains of thiamine-deficient group versus control (images) ([2]; ICR mice, FIGS. 8 and 9) | SUV value at peak of absorption in the brain ([2]; thiamine-deficient group ICR mice, individual mice) | time of peak of absorption in the brain ([2]; thiamine-deficient group ICR mice, individual mice, 90 min dynamic scan) | uptake in the brains of thiamine-deficient mice versus control (images) ([3]; C57BL/6 mice, FIGS. 12 and 13) | SUV value at absorption peak in the brain ([3]; control group C57BL/6 mice (normal diet), individual mice) | SUV value at peak of accumulation in the brain ([3]; thiamine-deficient group C57BL/6 mice, individual mice, at 90 min) | time of peak of accumulation in the brain ([3]; thiamine-deficient group C57BL/6 mice, two mice, rose continuously over 90 min) | SUV value at absorption peak in the brain [4] | time of absorption peak in the brain [4] |
| --- | --- | --- | --- | --- | --- | --- | --- | --- | --- | --- | --- |
| Br.Cc1ncc(C[n+]2csc(CC[18F])c2C)c(N)n1.[Br-] [^18F substituted thiamine hydrobromide] | significantly higher | successfully penetrates the blood-brain barrier |  |  |  |  |  |  |  |  |  |
| Cc1ncc(C[n+]2csc(CC[18F])c2C)c(N)n1 [^18F substituted thiamine, 3-[(4-Amino-2-methylpyrimidin-5-yl)methyl]-5-(2-fluoroethyl)-4-methylthiazolium] |  |  | obviously increased | 0.98 and 0.97 and 0.61 | 22.5 min and 35 min and 65 min | obviously increased | 0.17 and 0.25 and 0.3 | 0.48 and 0.55 | 90 min | 0.18 and 0.36 | about 20 min |
